One block for each compound: values may come before it.
Legend:
[1] = Odor threshold and odor value of perfuming compounds (Tables 4 to 10)
[2] = Volatility of perfuming compounds (Tables 4 to 10), with top/middle/bottom note type; type: physicochemical
How it was run: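 Volatility is expressed in μg/l in air. Top notes are 70,000 to 100 μg/l, middle notes 99 to 50 μg/l, and bottom notes 49 to 0.1 μg/l. Compounds are grouped by olfactive family: watery, green, fruity, citrus, sweet, gourmand and woody.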

[3] = Table 4, watery note, equals volatility divided by odor threshold
[4] = perfuming compounds having a green note
[5] = Table 4, watery note, top, middle or bottom note
[6] = note type (Top/Middle/Bottom) by volatility, perfuming compounds having a green note
[7] = Table 6, perfuming compounds having a fruity note
[8] = Table 6, perfuming compounds having a fruity note, note type by volatility
[9] = Table 7, citrus note, equals volatility divided by odor threshold
[10] = Table 7, citrus note, top, middle or bottom note
[11] = Table 10, perfuming compounds having a woody note, note type by volatility
[12] = Table 8, perfuming compounds having a sweet note
[13] = Table 8, perfuming compounds having a sweet note, note type by volatility
[14] = Table 9, perfuming compounds having a gourmand note, note type by volatility

Volatility (μg/l air) ([2]; Table 4, watery note): 131.02 μg/l air
Type [2, 6]: Top
Volatility (μg/l air) [2, 4]: 131.02 μg/l air
Compound: CC1=CC2CC(C=O)C1CC2C(C)C (stereo not shown) [8-ISOPROPYL-6-METHYL-BICYCLO[2.2.2]OCT-5-ENE-2-CARBALDEHYDE]
Odor Threshold (μg/l air) ([1]; Table 4, watery note): 7.11E−05 μg/l air
Odor Value [1, 3]: 1.84E+06
Odor Threshold (μg/l air) [1, 4]: 7.11E−05 μg/l air
Type [2, 5]: TOP (perfuming compounds having a volatility ranging from 70,000 to 100 μg/l in air are referred to as “top notes”)

Volatility (μg/l air) ([2]; Table 4, watery note): 21.54 μg/l air
Compound: (+−)-3-(4-methyl-3-penten-1-yl)-3-cyclohexene-1-carbaldehyde (A) + (+−)-4-(4-methyl-3-penten-1-yl)-3-cyclohexene-1-carbaldehyde (B)
Odor Threshold (μg/l air) ([1]; Table 4, watery note): 3.68E−03 μg/l air
Odor Value [1, 3]: 5.85E+03
Type [2, 5]: bottom (perfuming compounds having a volatility ranging from 49 to 0.1 μg/l in air are referred to as “bottom notes”)

Volatility [2, 7]: 263.73 μg/l air
Type [2, 6]: Top
Volatility (μg/l air) [2, 4]: 263.73 μg/l air
Compound: CC1CC(C)(c2ccccc2)CO1 (racemic)
Odor Threshold (μg/l air) [1, 4]: 5.04E−04 μg/l air
Type [2, 8]: TOP (perfuming compounds having a volatility ranging from 70,000 to 100 μg/l in air are referred to as “top notes”)

Volatility [2, 7]: 57.43 μg/l air
Type [2, 8]: Middle
Volatility (μg/l air) ([2]; Table 7, citrus note): 57.43 μg/l air
Type [2, 10]: Middle
Compound: CCCC1CCCC(=O)O1 (racemic) [(+−)-6-propyltetrahydro-2H-pyran-2-one]
Odor Threshold [1, 7]: 2.17E−04 μg/l air
Odor Value [1, 7]: 2.65E+05
Odor Threshold (μg/l air) ([1]; Table 7, citrus note): 2.17E−04 μg/l air
Odor Value [1, 9]: 2.65E+05

Type [2, 11]: Top
Volatility ([2]; Table 10, woody note): 659.22 μg/l air
Compound: CC(=O)/C(C)=C(/C)C(C)C(C)(C)C (racemic)
Odor Threshold ([1]; Table 10, woody note): 7.24E−02 μg/l air

Volatility (μg/l air) ([2]; Table 4, watery note): 79.79 μg/l air
Compound: CC(C)CC1CC(C)(O)CCO1 (racemic) [(+−)-TETRAHYDRO-2-ISOBUTYL-4-METHYL-4(2H)-PYRANOL]
Odor Threshold (μg/l air) ([1]; Table 4, watery note): 1.35E−02 μg/l air
Odor Value [1, 3]: 5.91E+03
Type [2, 5]: middle (perfuming compounds having a volatility ranging from 99 to 50 μg/l in air are referred to as “middle notes”)

Volatility [2, 12]: 19.23 μg/l air
Type [2, 13]: Bottom
Volatility ([2]; Table 9, gourmand note): 19.23 μg/l air
Type [2, 14]: Bottom
Compound: COc1cccc(OC)c1O [2,6-DIMETHOXYPHENOL]
Odor Threshold [1, 12]: 8.01E−06 μg/l air
Odor Value [1, 12]: 2.40E+06
Odor Threshold ([1]; Table 9, gourmand note): 8.01E−06 μg/l air

Type [2, 11]: Bottom
Volatility ([2]; Table 10, woody note): 1.74 μg/l air
Compound: CC1(CO)CC1CC1CC2CC2(C)C1(C)C (stereo not shown)
Odor Threshold ([1]; Table 10, woody note): 2.18E−06 μg/l air

Volatility [2, 7]: 2814.34 μg/l air
Volatility (μg/l air) ([2]; Table 7, citrus note): 2814.34 μg/l air
Type [2, 10]: Top
Compound: CCCCCCCOC(C)=O [heptyl acetate]
Odor Threshold (μg/l air) ([1]; Table 7, citrus note): 1.32E−01 μg/l air
Odor Value [1, 9]: 2.14E+04
Type [2, 8]: TOP (perfuming compounds having a volatility ranging from 70,000 to 100 μg/l in air are referred to as “top notes”)

Volatility [2, 7]: 110.11 μg/l air
Volatility [2, 12]: 110.11 μg/l air
Type [2, 13]: Top
Volatility ([2]; Table 9, gourmand note): 110.11 μg/l air
Type [2, 14]: Top
Compound: CC(C)CCOCCc1ccccc1 [3-METHYLBUTYL 2-PHENYLETHYL ETHER]
Odor Threshold [1, 7]: 1.38E−02 μg/l air
Odor Value [1, 7]: 7.96E+03
Odor Threshold [1, 12]: 1.38E−02 μg/l air
Odor Value [1, 12]: 7.96E+03
Odor Threshold ([1]; Table 9, gourmand note): 1.38E−02 μg/l air
Type [2, 8]: TOP (perfuming compounds having a volatility ranging from 70,000 to 100 μg/l in air are referred to as “top notes”)

Volatility (μg/l air) ([2]; Table 7, citrus note): 4298.67 μg/l air
Type [2, 10]: Top
Compound: CC1=CCC(C(C)C)=CC1 [1-methyl-4-(2-propanyl)-1,4-cyclohexadiene]
Odor Threshold (μg/l air) ([1]; Table 7, citrus note): 1.16E−01 μg/l air
Odor Value [1, 9]: 3.70E+04

Volatility [2, 7]: 587.76 μg/l air
Volatility (μg/l air) ([2]; Table 7, citrus note): 587.76 μg/l air
Type [2, 10]: Top
Type [2, 6]: Top
Volatility (μg/l air) [2, 4]: 587.76 μg/l air
Compound: COCC(C)Cc1ccccc1 (racemic) [(+−)-(3-methoxy-2-methylpropyl)benzene]
Odor Threshold (μg/l air) ([1]; Table 7, citrus note): 1.51E−02 μg/l air
Odor Value [1, 9]: 3.89E+04
Odor Threshold (μg/l air) [1, 4]: 1.51E−02 μg/l air
Type [2, 8]: TOP (perfuming compounds having a volatility ranging from 70,000 to 100 μg/l in air are referred to as “top notes”)

Volatility (μg/l air) ([2]; Table 4, watery note): 472.01 μg/l air
Compound: CCCCCC#CC(=O)OC [METHYL 2-OCTYNOATE″]
Odor Threshold (μg/l air) ([1]; Table 4, watery note): 8.31E−04 μg/l air
Odor Value [1, 3]: 5.68E+05
Type [2, 5]: TOP (perfuming compounds having a volatility ranging from 70,000 to 100 μg/l in air are referred to as “top notes”)

Type [2, 6]: Top
Volatility (μg/l air) [2, 4]: 3398.34 μg/l air
Compound: CC/C=C\CCOC(C)=O [(Z)-3-HEXENYL ACETATE]
Odor Threshold (μg/l air) [1, 4]: 1.00E−02 μg/l air

Volatility [2, 12]: 97.79 μg/l air
Type [2, 13]: Middle
Compound: CCCCCC1CCCC1O (racemic) [(+−)-2-PENTYL-1-CYCLOPENTANOL]
Odor Threshold [1, 12]: 5.43E−03 μg/l air
Odor Value [1, 12]: 1.80E+04

Reference: US20240301319A1, “PERFUMING COMPOSITIONS” (FIRMNICH SA, priority 2017, published 2024)
